{
  "source": "paper PMC11879692",
  "about": "“PDE4 inhibitor rolipram represses hedgehog signaling via ubiquitin-mediated proteolysis of GLI transcription factors to regress breast cancer” (The Journal of Biological Chemistry, 2025)",
  "key": {"[1]": {"tested_on": "intracellular cAMP in MCF-7 cells", "assay": "cAMP assay (ELISA-based kit), intracellular cAMP", "type": "cell-based, human", "conditions": "24 h, untreated control 14.1 pmol/ml", "method": "(§1) To determine the intracellular level of cAMP, a […] ELISA-based cAMP assay kit was used, which relies on preparation of a standard curve for cAMP (pmol/ml) and denoting all the experimental values from the standard curve, and finally expressing as mean values with standard errors of triplicate samples per treatment group. The assay kit was obtained from Cayman Chemicals (item no.: 581001), and the assay was performed following the manufacturer’s protocol after washing the cells with 1X PBS (composition: 137 mM NaCl, 2.7 mM KCl, 10 mM Na2HPO4, and 1.8 mM KH2PO4) and treating with 0.1 M HCl for 20 min and sonicating the cells for lysis. In brief, the cell lysate was added to the 96-well plate precoated with mouse monoclonal anti-rabbit IgG and which also contained cAMP–acetylcholinesterase (cAMP tracer) that competes with the free cAMP in the cell lysate to bind to the cAMP-specific rabbit antibody. Following several washes, the absorbance of the color generated because of addition of acetylcholinesterase substrate is measured at 412 nm by Bio-Rad iMark Microplate Reader (RRID: SCR_023799), which is inversely proportional to the amount of free cAMP present in the cell lysate ([29])."}, "[2]": {"tested_on": "intracellular cAMP in MDA-MB-231 cells", "assay": "cAMP assay (ELISA-based kit), intracellular cAMP", "type": "cell-based, human", "conditions": "24 h, untreated 12.55 pmol/ml", "method": "as §1"}, "[3]": {"tested_on": "MCF-7 cells", "assay": "Annexin V-FITC and PI double staining", "type": "cell-based, human", "conditions": "MCF-7, IC50 dose, 24 h", "method": "(§2) To analyze if the cells have undergone necrosis or apoptosis because of 24 h of rolipram treatment, cells were double stained with Annexin V-FITC and PI using BD Pharmingen Annexin V:FITC Apoptosis Detection Kit (BD Biosciences; catalog no.: BD556547) using the manufacturer’s protocol. The data obtained from BD LSRFortessa flow cytometer (RRID: SCR_019600) were analyzed using BD FACSDiva 9.0 software ([31], [32]) (RRID: SCR_001456)."}, "[4]": {"tested_on": "MDA-MB-231 cells", "assay": "Annexin V-FITC and PI double staining", "type": "cell-based, human", "conditions": "MDA-MB-231, IC50 dose, 24 h", "method": "as §2"}, "[5]": {"tested_on": "4T1 mice breast carcinoma cells, mammary fat pad tumor", "assay": "Solid tumor in mice, tumor weight and volume", "type": "in vivo, BALB/c mice", "conditions": "vs untreated tumor", "method": "(§3) Solid tumors were developed in BALB/c mice (n = 3) except the control group (group I) by injecting 1 × 10^4 viable 4T1 (RRID: CVCL_0125) mice breast carcinoma cells (resuspended in 50 μl of PBS) into the inguinal fourth mammary fat pad, and the tumor was allowed to develop for 14 days ([37], [38]). Mice were randomly divided into three groups, viz., untreated tumor (group II), mice treated intraperitoneally with 1 mg//kg bodyweight of rolipram (group III), and mice receiving 5 mg/kg bodyweight of rolipram, intraperitoneally (group IV) ([39], [40]). After 14 days, the mice were sacrificed. Lung, kidney, liver, serum, and the tumors were collected for further experiments ([15]).\nWeight of mammary fat pad of mice from group I and weight of tumors from groups II, III, and IV were measured using digital fine balance. Width and length of the tumors obtained from mice of groups II, III, and IV were measured using digital Vernier caliper. The volume was measured by the formula V = half × (W × W × L), where V is the volume, W is the width, and L is the length of the tumors ([15], [41])."}, "[6]": {"tested_on": "4T1 mice breast carcinoma cells, mammary fat pad tumor", "assay": "Histological study of mammary tissue and lung of tumor-bearing mice", "type": "in vivo, BALB/c mice", "conditions": "for number of cells per unit area (480 px × 400 px) of lung histological sections: tumor-induced 213 ± 20, control 143 ± 19, mean ± SD", "method": "as §3\nTissue samples of mammary tissue, lung, kidney, and liver from each group of mice were fixed in Bouin’s solution (Sigma–Aldrich; catalog no.: HT10132), dehydrated in graded alcohol, and embedded in paraffin wax. Thin sections (5 μm) of tissues were mounted on glass slides and stained with hematoxylin (Sigma–Aldrich; catalog no.: H3136), following rehydration with graded alcohol. The samples were again dehydrated with graded alcohol and stained with eosin and mounted with Dystyrene Plasticizer Xylene ([42]). The images were obtained in an Olympus CKX53 Inverted Microscope (RRID: SCR_025025) at 10X magnifications with MagVision Software (Magnus). The QuPath (RRID: SCR_018257) software ([43]) was used to detect the cells and determine the area of individual cells and their corresponding nuclei in each image. The tab-delimited text file obtained from QuPath software was utilized by NumPy ([44]) (RRID: SCR_008633) to determine the nucleus-to-cytoplasm ratio of individual cells, and the frequency (cell count) of the nucleus-to-cytoplasm ratio was plotted by MatPlotLib (RRID: SCR_008624), a Python (RRID: SCR_008394) 2D plotting library. For quantifying the number of cells in a unit area of histological section of lung, each section image was divided into 12 equal parts (dimensions: 480 px × 400 px). The number of cells in each part was obtained from QuPath (RRID: SCR_018257) software, and the values were represented as mean ± SD."}, "[7]": {"assay": "Histological analysis of liver of tumor-bearing mice", "type": "in vivo, BALB/c mice", "conditions": "rolipram-treated tumor-bearing mice; dilation observed in untreated tumor-bearing mice", "method": "as §3\nTissue samples of mammary tissue, lung, kidney, and liver from each group of mice were fixed in Bouin’s solution (Sigma–Aldrich; catalog no.: HT10132), dehydrated in graded alcohol, and embedded in paraffin wax. Thin sections (5 μm) of tissues were mounted on glass slides and stained with hematoxylin (Sigma–Aldrich; catalog no.: H3136), following rehydration with graded alcohol. The samples were again dehydrated with graded alcohol and stained with eosin and mounted with Dystyrene Plasticizer Xylene ([42]). […] For quantifying the number of cells in a unit area of histological section of lung, each section image was divided into 12 equal parts (dimensions: 480 px × 400 px). […]"}, "[8]": {"conditions": "1 mg/kg bodyweight i.p., 14 days of treatment"}, "[9]": {"conditions": "5 mg/kg bodyweight i.p., 14 days"}},
  "data": [
    {"molecule": "COc1ccc(C2CNC(=O)C2)cc1OC1CCCC1", "note": "(stereo not drawn) [rolipram, Rolipram]", "values": [
      {"measurement": "intracellular cAMP level", "setting": "[1]; MCF-7, IC50 dose", "value": 43.12, "unit": "pmol/mL"},
      {"measurement": "intracellular cAMP level", "setting": "[1]; MCF-7, half IC50 dose", "value": 24.02, "unit": "pmol/mL"},
      {"measurement": "intracellular cAMP level", "setting": "[2]; MDA-MB-231, IC50 dose", "value": 37.41, "unit": "pmol/mL"},
      {"measurement": "intracellular cAMP level", "setting": "[2]; MDA-MB-231, half IC50 dose", "value": 28.35, "unit": "pmol/mL"},
      {"measurement": "increase in the dead cell population", "setting": "[3]", "value": 8.1, "unit": "%"},
      {"measurement": "increase in the dead cell population", "setting": "[4]", "value": 5.2, "unit": "%"},
      {"measurement": "reduction of tumor volume", "setting": "[5]; [8]", "value": "twofold"},
      {"measurement": "reduction of tumor weight", "setting": "[5]; [8]", "value": "twofold"},
      {"measurement": "reduction of tumor volume", "setting": "[5]; [9]", "value": 2.8, "unit": "fold"},
      {"measurement": "reduction of tumor weight", "setting": "[5]; [9]", "value": 3.4, "unit": "fold"},
      {"measurement": "number of cells per unit area (480 px × 400 px) of lung histological sections", "setting": "[6]; 1 mg/kg bodyweight", "value": "154 ± 11"},
      {"measurement": "number of cells per unit area (480 px × 400 px) of lung histological sections", "setting": "[6]; 5 mg/kg bodyweight", "value": "119 ± 10"},
      {"measurement": "metastatic cellular infiltration in the lung tissues", "setting": "[6]; rolipram-treated tumor-bearing mice", "value": "significantly reduce"},
      {"measurement": "multinucleated cells in the mammary fat pad and glandular region", "setting": "[6]; rolipram-treated tumor-bearing mice, p < 0.001", "value": "reduced"},
      {"measurement": "hepatic vein dilation", "setting": "[7]", "value": "not evident"}
    ]}
  ]
}
